Assay results: patent publication US20110288045A1, “WET GRANULATION OF TENOFOVIR, EMTRICITABINE AND EFAVIRENZ” (ULTIMORPHIX TECHNOLOGIES B.V., priority 2008, published 2011)
Entries after “also recorded” stand apart in the source; their conditions may differ. Where a name gives a salt, the structure may show the parent alone. Read-outs that look alike come from different tables or passages of the source.

Key:
[1] = wet granulation of the three drugs (Efavirenz, Tenofovir DF, Emtricitabine) together; US2007099902A1, EP1890681; cited from earlier work
[2] = Stability testing at 33 weeks of wet granulated Truvada and Atripla combination formulations, by HPLC; assay type: physicochemical
Protocol: Stability Testing at 33 Weeks
The stability of the Truvada and Atripla combination formulations after wet granulation was checked by HPLC after 33 weeks storage under 75% Relative Humidity (RH) and 40° C.
Two types of formulations were prepared for each combination, one containing the Tenofovir Disoproxil Fumarate and the other one containing the Tenofovir Disoproxil Hemifumarate co-crystal. In both combinations, water content of 30 and 40% was prepared.

[3] = HPLC assay for degradation products after wet granulation; assay type: physicochemical; details: for Impurity peaks of Tenofovir disoproxil at 26.57 and 36.0 min (HPLC): wet granulation with Emtricitabine (Table 1)
Protocol: Analytical Methods: HPLC Assay for Degradation Product
Emtricitabine/Tenofovir disoproxil (Fumarate or Hemifumarate) granules are assayed by HPLC for Emtricitabine and Tenofovir disoproxil (Fumarate or Hemifumarate) using external references as described in US2007/0077295. The presence of degradation products are determined by area normalization. The identities of Emtricitabine and Tenofovir disoproxil (Fumarate or Hemifumarate) are confirmed by comparison of their retention times with those of the reference standards.
Approximately 6520 mg of Emtricitabine/Tenofovir disoproxil (Fumarate or Hemifumarate) granules was weighted into a 1 L volumetric flask. Added was 400 mL 25 mM phosphate buffer, pH 3 to the volumetric flask. Mixing was performed by stirring vigorously for about 75 minutes. 50:50 acetonitrile: methanol was added to the flask to approximately 2 cm below the 1 L mark. The solution was equilibrated to ambient temperature by mixing for 1 hour. The volume was diluted to 1 L with 50:50 acetonitrile: methanol and mixed well by stirring with a magnetic stirring bar. Using a 0.45 μm syringe filter with a syringe, approximately 10 mL for the next dilution was filtered. The first 2 mL of the filtrate was discarded. A class A pipette was used to transfer 5.0 mL of the filtrate into a 50 mL volumetric flask and dilute the to volume with sample solvent (40:30:30). […]
A composition comprising the ingredients and ratios as listed in table 1 are subjected to a standard wet granulation process with respectively 30% and 40% w/w water. The quality of the granulation was assessed visually. […]
A composition comprising the ingredients and ratios as listed in table 2 were subjected to a standard wet granulation process with respectively 30% and 40% w/w water. The quality of the granulation was assessed visually. […]
A composition comprising the ingredients and ratios as listed in Table 1 are subjected to a standard wet granulation process with respectively 30% and 40% w/w water. The quality of the granulation was assessed visually. […]

Degradation of Tenofovir disoproxil salt (HPLC chromatogram) [2]	Compound	Stability of Tenofovir DF [1]	Chemical stability during wet granulation (overall conclusion) ([3]; Truvada (table 1) and Atripla (table 2) formulations, 30% and 40% w/w water)	Impurity peaks of Tenofovir disoproxil at 26.57 and 36.0 min (HPLC) ([3]; 30% w/w high pure water)	Impurity peaks of Tenofovir disoproxil at 26.57 and 36.0 min (HPLC) ([3]; 40% w/w high pure water)	Degradation of Tenofovir disoproxil salt (HPLC chromatogram) ([2]; Atripla sample prepared with 30% water, 33 weeks, 75% RH, 40° C.)	Degradation of Tenofovir disoproxil salt (HPLC chromatogram) ([2]; Atripla sample prepared with 40% water, 33 weeks, 75% RH, 40° C.)	Degradation of Tenofovir disoproxil salt (HPLC chromatogram) ([2]; Truvada sample prepared with 30% water, 33 weeks, 75% RH, 40° C.)	Degradation of Tenofovir disoproxil salt (HPLC chromatogram) ([2]; Truvada sample prepared with 40% water, 33 weeks, 75% RH, 40° C.)
to a large extent	CC(C)OC(=O)OCOP(=O)(CO[C@H](C)Cn1cnc2c(N)ncnc21)OCOC(=O)OC(C)C [Tenofovir disoproxil fumarate]	degraded rapidly; also recorded: unstable							
	Tenofovir disoproxil hemifumarate		stable	not observed	not observed	no degradation	less degradation	small degradation	small degradation
